Read-outs that look alike come from different tables or passages of the source.
Legend:
[1] = Metabolite profiling and quantification in urine (HPLC-MS2 with on-line radioactivity detector); type: in vivo, humans; settings: human, oral 207 μmol 14C-EC, mean ± SEM n=8
Protocol: (§1) The study was a single-center, open-label, and non-randomized study with two distinct elements: a run-in phase to establish a more defined dietary background of dietary flavanols and procyanidins and the subsequent ^14C-EC ADME study (Fig. 1B). Participants (n = 12) were enrolled in the run-in phase (day –17 to day –4) and asked to supplement their daily diet for 14 days with a commercially available flavanol-containing cocoa-based drink (250 mg cocoa flavanols; 40 mg of EC). This was followed by a 4-day period (day –4 to 0) of a low-flavanol diet. One day (study day -1) prior to the initialization of the ^14C-EC ADME study, all eligible participants were accommodated under controlled conditions at a metabolic research facility (Covance Clinical Pharmacology Inc., Wisconsin) until completion of the study. Based on the compliance of the first part of the study, 8 participants were selected to participate in the ^14C-EC ADME study. During the ^14C-EC ADME study (Fig. 1B.), volunteers received a low-flavanol, standardized high-fiber diet, and were encouraged to maintain an adequate level of hydration (water ad libitum). Volunteers were asked to fast for 8 h before the initiation of the study and for at least 4 h after the intake of the ^14C-EC test drink (water ad libitum). Venous blood samples were taken using Vacutainer collection tubes, containing potassium EDTA at 0 h (just prior to ^14C-EC ingestion), and at 0.25, 0.5, 1, 1.5, 2, 2.5, 3, 4, 6, 8, 10, 12, 16, 24, 36, and 48 h after test drink consumption. Plasma was obtained by whole blood centrifugation at 2000 × g for 15 min at 5 °C, separated into aliquots and stored at −80 °C until analysis. All urine and feces from the time just prior to the consumption of the test drink were collected at different time intervals for radioactivity and metabolite profiling. Clinical parameters and laboratory evaluations of participants were assessed at screening, on study day –1, and after completing the study, as detailed in Supplementary Methods.
(§2) Samples were processed as described previously[18] and analyzed by HPLC-MS^2 in conjunction with an on-line HPLC-radioactivity monitor as described in SI Materials and Methods. Identification of metabolites involved comparing the retention time with authentic standards and MS^2 fragmentation patterns (Supplementary Methods). Quantification of metabolites in urine was based on HPLC radioactivity peak area (limit of quantification: 10^3 dpm). Due to the low levels of radioactivity, quantification in plasma was based on targeted HPLC-MS^2 using standard curves obtained with authentic standards (Supplementary Methods).
HPLC-MS identifications of radiolabeled [2-14C](−)-epicatechin metabolites in urine Urine was analyzed with radioactivity and mass spectrometry (MS) detection using a 250 mm x 4.6 mm i.d. 5 µm Luna Phenyl-Hexyl column (Phenomenex, Macclesfield, UK) […]
formic acid. Metabolite identification was performed by 1) co-chromatography of metabolites with reference compounds and a comparison of their MS fragmentation patterns 2, 2) by comparing m/z fragmentation patterns with earlier in-house observed […]
patterns to databases of metabolites reported in earlier polyphenol feeding studies5-7.
Supplementary Table S2, which also provides information on the MSI MI (Metabolite Standards Initiative – Metabolites Identification) level, a confidence level for identification where level 1 stands for fully elucidated (i.e., by comparison with a standard) and level 2 for a well characterized, but not yet fully structurally elucidated 8

[2] = Metabolite profiling and pharmacokinetics in plasma (targeted HPLC-MS2); type: in vivo, humans; settings: human plasma, oral 60 mg 14C-EC; for AUC0-24h / Cmax / T1/2 (elimination half-life) / Tmax / AUC(0-t) / half-life: mean ± SEM n=8; for AUC(0-t): read-out: AUC0-24h; for half-life: read-out: T1/2 (elimination half-life) (converted)
Protocol: as §1, §2
Data are expressed as mean values ± standard error, or as otherwise specified. Pharmacokinetic parameters were calculated using non-compartmental analysis with WinNonlin (Pharsight Corporation, Version 5.2).
5-20% acetonitrile in 0.1 % formic acid. Supplementary Table S2 provides details of HPLC retention times and the m/z values that were monitored.
Supplementary Table S2. Detection of (−)-epicatechin metabolites. HPLC retention times and selected reaction monitoring ions used for the HPLC-MS analysis of (−)-epicatechin metabolites in plasma. […]
Structurally related (-)-epicatechin metabolites in humans: assessment using de novo chemically synthesized authentic standards. Free Radic Biol Med 52, 1403- […]
3 Borges, G. et al. Bioavailability of multiple components following acute ingestion of a polyphenol-rich juice drink. Mol Nutr Food Res 54 Suppl 2, S268-277, […]
4 Stalmach, A. et al. Absorption, metabolism, and excretion of green tea flavan-3-ols in humans with an ileostomy. Mol Nutr Food Res 54, 323-334,

Structure (SMILES): COc1cc([C@H]2Oc3cc(OS(=O)(=O)O)cc(O)c3C[C@H]2O)ccc1O [3′-O-Methyl-(−)-epicatechin-7-sulfate, 3′-O-methyl-(−)-epicatechin-7-sulfate]
- Metabolite present in urine, collection period 0–48 h [1]: 1.2 ± 0.3 μ mol
- Metabolite present in urine, collection period 0–4 h ([1]; – = not detected): 0.9 ± 0.2 μ mol
- Metabolite present in urine, collection period 4–8 h ([1]; – = not detected): 0.3 ± 0.1 μ mol
- AUC0-24h [2]: 1.03 ± 0.26 µM·h
- Cmax [2]: 159 ± 20 nM
- T1/2 (elimination half-life) [2]: 2.4 ± 0.2 h
- Tmax [2]: 1.1 ± 0.1 h

Structure (SMILES): COc1ccc([C@H]2Oc3cc(O)cc(OS(=O)(=O)O)c3C[C@H]2O)cc1O [4′-O-Methyl-(−)-epicatechin-5-sulfate]
- Metabolite present in urine, collection period 0–48 h [1]: 1.1 ± 0.3 μ mol
- Metabolite present in urine, collection period 0–4 h ([1]; – = not detected): 1.0 ± 0.2 μ mol
- Metabolite present in urine, collection period 4–8 h ([1]; – = not detected): 0.1 ± 0.1 μ mol
- AUC0-24h [2]: 0.128 ± 0.045 µM·h
- Cmax [2]: 53 ± 14 nM
- T1/2 (elimination half-life) [2]: 1.4 ± 0.3 h
- Tmax [2]: 0.9 ± 0.1 h

Structure (SMILES): COc1ccc([C@H]2Oc3cc(OS(=O)(=O)O)cc(O)c3C[C@H]2O)cc1O [4′-O-Methyl-(−)-epicatechin-7-sulfate]
- Metabolite present in urine, collection period 0–48 h [1]: 0.4 ± 0.2 μ mol
- Metabolite present in urine, collection period 0–4 h ([1]; – = not detected): 0.3 ± 0.1 μ mol
- Metabolite present in urine, collection period 4–8 h ([1]; – = not detected): 0.1 ± 0.1 μ mol
- AUC0-24h [2]: 0.166 ± 0.054 µM·h
- Cmax [2]: 33 ± 5 nM
- T1/2 (elimination half-life) [2]: 2.6 ± 0.5 h
- Tmax [2]: 1.4 ± 0.2 h

Structure (SMILES): O=C(O)CCC(O)Cc1ccc(O[C@@H]2O[C@H](C(=O)O)[C@@H](O)[C@H](O)[C@H]2O)c(O)c1 (stereo partly shown) [5-(3′-Hydroxyphenyl)-γ-hydroxyvaleric acid-4′-O-glucuronide]
- Metabolite present in urine, collection period 0–48 h [1]: 2.3 ± 0.7 μ mol
- Metabolite present in urine, collection period 4–8 h ([1]; – = not detected): 1.3 ± 0.5 μ mol
- Metabolite present in urine, collection period 8–12 h ([1]; – = not detected): 0.5 ± 0.3 μ mol
- Metabolite present in urine, collection period 12–24 h ([1]; – = not detected): 0.5 ± 0.1 μ mol
- AUC0-24h [2]: 0.835 ± 0.355 µM·h
- Cmax [2]: 54 ± 14 nM
- T1/2 (elimination half-life) [2]: 6.5 ± 0.8 h
- Tmax [2]: 4.9 ± 1.3 h

Structure (SMILES): O=C1CCC(Cc2ccc(O)c(OS(=O)(=O)O)c2)O1 (stereo not shown) [5-(4′-hydroxyphenyl)-γ-valerolactone-3′-sulfate]
- Metabolite present in urine, collection period 0–48 h [1]: 38.0 ± 4.7 μ mol
- Metabolite present in urine, collection period 0–4 h ([1]; – = not detected): 3.6 ± 1.1 μ mol
- Metabolite present in urine, collection period 4–8 h ([1]; – = not detected): 16.0 ± 3.0 μ mol
- Metabolite present in urine, collection period 8–12 h ([1]; – = not detected): 9.8 ± 2.0 μ mol
- Metabolite present in urine, collection period 12–24 h ([1]; – = not detected): 8.1 ± 2.9 μ mol
- Metabolite present in urine, collection period 24–48 h ([1]; – = not detected): 0.5 ± 0.5 μ mol
- Cmax ([2]; male): 272 ± 56 nM
- AUC(0-t) ([2]; male): 7.59 ± 2.68 µM·h
- half-life ([2]; male): 6.3 ± 1.7 h
- Tmax ([2]; male, read-out: Tmax): 6.4 ± 1 h
- concentration at 24 h ([2]; male, read-out: Plasma concentration 24 h after ingestion): ~50 nM

Structure (SMILES): O=C(O)[C@H]1O[C@@H](Oc2cc([C@H]3Oc4cc(O)cc(O)c4C[C@H]3O)ccc2O)[C@H](O)[C@@H](O)[C@@H]1O [(−)-Epicatechin-3′-O-glucuronide, (−)-epicatechin-3′-O-β-D-glucuronide]
- Metabolite present in urine, collection period 0–48 h [1]: 18.6 ± 2.5 μ mol
- Metabolite present in urine, collection period 0–4 h ([1]; – = not detected): 8.0 ± 1.4 μ mol
- Metabolite present in urine, collection period 4–8 h ([1]; – = not detected): 5.7 ± 1.3 μ mol
- Metabolite present in urine, collection period 8–12 h ([1]; – = not detected): 2.9 ± 0.8 μ mol
- Metabolite present in urine, collection period 12–24 h ([1]; – = not detected): 2.0 ± 0.8 μ mol
- Cmax ([2]; male): 359 ± 23 nM
- AUC(0-t) ([2]; male): 1.62 ± 0.332 µM·h
- half-life ([2]; male): 2 ± 1.1 h
- Tmax ([2]; male, read-out: Tmax): 0.8 ± 0.1 h

Structure (SMILES): O=S(=O)(O)Oc1cc([C@H]2Oc3cc(O)cc(O)c3C[C@H]2O)ccc1O [(−)-Epicatechin-3′-sulfate, (−)-epicatechin-3′-sulfate]
- Metabolite present in urine, collection period 0–48 h [1]: 7.7 ± 0.9 μ mol
- Metabolite present in urine, collection period 0–4 h ([1]; – = not detected): 6.0 ± 0.7 μ mol
- Metabolite present in urine, collection period 4–8 h ([1]; – = not detected): 1.2 ± 0.4 μ mol
- Metabolite present in urine, collection period 8–12 h ([1]; – = not detected): 0.3 ± 0.1 μ mol
- Metabolite present in urine, collection period 12–24 h ([1]; – = not detected): 0.2 ± 0.2 μ mol
- Cmax ([2]; male): 191 ± 17 nM
- AUC(0-t) ([2]; male): 0.633 ± 0.135 µM·h
- half-life ([2]; male): 2 ± 0.3 h
- Tmax ([2]; male, read-out: Tmax): 1.1 ± 0.1 h

Structure (SMILES): O=S(=O)(O)Oc1cc(O)cc2c1C[C@@H](O)[C@@H](c1ccc(O)c(O)c1)O2 [(−)-Epicatechin-5-sulfate]
- Metabolite present in urine, collection period 0–48 h [1]: 1.3 ± 0.2 μ mol
- Metabolite present in urine, collection period 0–4 h ([1]; – = not detected): 1.3 ± 0.2 μ mol
- AUC0-24h [2]: 0.092 ± 0.025 µM·h
- Cmax [2]: 32 ± 4 nM
- T1/2 (elimination half-life) [2]: 1.9 ± 0.3 h
- Tmax [2]: 0.8 ± 0.1 h

From publication PMC4929566, “The metabolome of [2-^14C](−)-epicatechin in humans: implications for the assessment of efficacy, safety, and mechanisms of action of polyphenolic bioactives” (Scientific Reports, 2016)
